Marks after values point to notes of the source that are not given here.
What was measured:
[1] = system: plasma cyclic GMP; experiment: Plasma cyclic GMP after a single intravenous bolus in conscious rabbits; type: in vivo; details: rabbit, single iv bolus 30 μg/kg, n = 4
Excerpt: (§1) New Zealand White male rabbits (R & R Rabbitry, WA) weighing 2.5 to 3.0 kg, were used in the study. Upon receipt, the animals were allowed a 1-week acclimation period at the animal facility to ensure proper health status prior to the study. On the day of the study, the rabbits were weighed and placed in an open top plexiglass restrainers with adjustable plexiglass and nylon covers. The ears were shaved, 2% Lidocaine HCl (Xylocalne jelly, Astra, Westborough, Mass.) was applied topically on the surface of the ears, and IV catheters (Angiocath, Becton Dickinson, Utah) fitted with heparin locks were inserted into the intermedial branch of the peripheral ear vein for drug administration and into the central ear artery for repeated blood sampling.
(§2) Blood samples were drawn 20 minutes prior to and 0, 50, 55, 60, 110, 115, 120, 170, 175, and 180 minutes following initiation of the infusion. […] Blood samples were taken at 20 minutes prior to dosing, immediately prior to dosing and 5, 10, 15, 30, 60, and 90 minutes after dosing. Blood samples (3 mL) was drawn at each time point and the volume replaced with an equal volume of 0.9% NaCl. Blood was collected into EDTA coated tubes containing aprotinin (150 kallikrein inhibitory units/tube) and centrifuged immediately.
(§3) Plasma cyclic GMP levels were determined by radioimmunoassay (DuPont, Boston, Mass.). […] Separation of the bound from free antigen was performed using a pre-reacted primary and secondary antibody complex. Prior to the assay, the plasma samples were extracted with ethanol and the supernate evaporated to dryness in a speed vac concentrator (Savant Instruments, Holbrook, N.Y.). The dried samples were reconstituted with sodium acetate buffer. Plasma cyclic GMP levels were determined by interpolation from the standard curve (0.01 to 10 pmol/mL).

[2] = system: plasma cyclic GMP; experiment: Plasma cyclic GMP during dose-escalating continuous intravenous infusion in conscious rabbits; type: in vivo; details: rabbit; for Mean Plasma Cyclic GMP ± SD: n = 6
Excerpt: as §1, §2, §3

[3] = Plasma peptide levels (EIA) during dose-escalating continuous intravenous infusion in conscious rabbits; type: in vivo; details: rabbit; for Plasma steady state concentration: n = 6
Excerpt: as §1, §2
(§4) The plasma samples were diluted appropriately with pooled normal rabbit plasma prior to assay. […] Levels of the biotinylated probe were measured by using a sensitive enzyme based detection system, avidin-HRP, and a […] that provided a colorimetric endpoint.

[4] = Plasma peptide levels (EIA) after a single intravenous bolus in conscious rabbits; details: male, New Zealand White, in vivo, 30 ug/kg, rabbit, single iv bolus 30 μg/kg, n = 4
Excerpt: as §1, §2, §4

Compound: CC[C@H](C)[C@@H]1NC(=O)[C@H](CCCNC(=N)N)NC(=O)[C@H](CC(=O)O)NC(=O)[C@H](CCSC)NC(=O)[C@H](CCCCN)NC(=O)[C@H](CCCNC(=N)N)NC(=O)CNC(=O)[C@H](Cc2ccccc2)NC(=O)[C@@H](NC(=O)CNC(=O)[C@H](CO)NC(=O)CNC(=O)[C@H](CCC(N)=O)NC(=O)[C@@H](NC(=O)[C@H](CCSC)NC(=O)[C@H](CCCCN)NC(=O)[C@@H]2CCCN2C(=O)[C@@H](N)CO)C(C)C)CSSC[C@@H](C(=O)N[C@@H](CCCCN)C(=O)N[C@H](C(=O)N[C@@H](CC(C)C)C(=O)N[C@@H](CCCNC(=N)N)C(=O)N[C@@H](CCCNC(=N)N)C(=O)N[C@@H](Cc2c[nH]cn2)C(=O)O)C(C)C)NC(=O)CNC(=O)[C@H](CC(C)C)NC(=O)CNC(=O)[C@H](CO)NC(=O)[C@H](CO)NC(=O)[C@H](CO)NC(=O)[C@H](CO)NC1=O [hBNP, Ser^1-Pro^2-Lys^3-Met^4-Val^5-Gln^6-Gly^7-Ser^8-Gly^9-Cys^10-Phe^11-Gly^12-Arg^13-Lys^14-Met^15-Asp^16-Arg^17-Ile^18-Ser^19-Ser^20-Ser^21-Ser^22-Gly^23-Leu^24-Gly^25-Cys^26-Lys^27-Val^28-Leu^29-Arg^30-Lys^31-His^32]
- Plasma Cyclic GMP ([1]; 0 min (before dosing)): 47 pmol/mL
- Plasma Cyclic GMP ([1]; 5 min): 201* pmol/mL
- Plasma Cyclic GMP ([1]; 10 min): 214* pmol/mL
- Plasma Cyclic GMP ([1]; 15 min): 189* pmol/mL
- Plasma Cyclic GMP ([1]; 30 min): 146 pmol/mL
- Plasma Cyclic GMP ([1]; 60 min): 65 pmol/mL
- Plasma Cyclic GMP ([1]; 90 min): 40 pmol/mL
- Plasma Cyclic GMP ([1]; −20 min (before dosing)): 46 pmol/mL
- Mean Plasma Cyclic GMP ± SD ([2]; 0 μg/kg/min (saline), 0 min): 30 ± 16 pmol/mL
- Mean Plasma Cyclic GMP ± SD ([2]; 0 μg/kg/min (saline), −20 min): 34 ± 15 pmol/mL
- Change of plasma cyclic GMP during continuous infusion ([2]; 0.05, 0.1, 0.2 μg/kg/min, in words): dose-related increase in plasma cyclic GMP
- Mean Plasma Cyclic GMP ± SD ([2]; iv infusion 0.05 μg/kg/min, 50 min): 68 ± 33 pmol/mL
- Mean Plasma Cyclic GMP ± SD ([2]; iv infusion 0.05 μg/kg/min, 55 min): 87 ± 29 pmol/mL
- Mean Plasma Cyclic GMP ± SD ([2]; iv infusion 0.05 μg/kg/min, 60 min): 92 ± 34 pmol/mL
- Mean Plasma Cyclic GMP ± SD ([2]; iv infusion 0.1 μg/kg/min, 110 min): 131 ± 38 pmol/mL
- Mean Plasma Cyclic GMP ± SD ([2]; iv infusion 0.1 μg/kg/min, 115 min): 122 ± 35 pmol/mL
- Mean Plasma Cyclic GMP ± SD ([2]; iv infusion 0.1 μg/kg/min, 120 min): 125 ± 27 pmol/mL
- Mean Plasma Cyclic GMP ± SD ([2]; iv infusion 0.2 μg/kg/min, 170 min): 159 ± 37 pmol/mL
- Mean Plasma Cyclic GMP ± SD ([2]; iv infusion 0.2 μg/kg/min, 175 min): 170 ± 43 pmol/mL
- Mean Plasma Cyclic GMP ± SD ([2]; iv infusion 0.2 μg/kg/min, 180 min): 145 ± 31 pmol/mL
- level at 50 min ([3]; male, New Zealand White, plasma, 0.05 ug/kg/min, iv infusion 0.05 μg/kg/min, 50 min, N = 6): 1.39 ng/mL
- level at 55 min ([3]; male, New Zealand White, plasma, 0.05 ug/kg/min, iv infusion 0.05 μg/kg/min, 55 min, N = 6): 1.28 ng/mL
- level at 1 h ([3]; male, New Zealand White, plasma, 0.05 ug/kg/min, iv infusion 0.05 μg/kg/min, 60 min, N = 6): 1.29 ng/mL
- level at 110 min ([3]; male, New Zealand White, plasma, 0.1 ug/kg/min, iv infusion 0.1 μg/kg/min, 110 min, N = 6): 3.85 ng/mL
- level at 115 min ([3]; male, New Zealand White, plasma, 0.1 ug/kg/min, iv infusion 0.1 μg/kg/min, 115 min, N = 6): 3.7 ng/mL
- level at 2 h ([3]; male, New Zealand White, plasma, 0.1 ug/kg/min, iv infusion 0.1 μg/kg/min, 120 min, N = 6): 2.75 ng/mL
- level at 170 min ([3]; male, New Zealand White, plasma, 0.2 ug/kg/min, iv infusion 0.2 μg/kg/min, 170 min, N = 6): 7.4 ng/mL
- level at 175 min ([3]; male, New Zealand White, plasma, 0.2 ug/kg/min, iv infusion 0.2 μg/kg/min, 175 min, N = 6): 8.07 ng/mL
- level at 3 h ([3]; male, New Zealand White, plasma, 0.2 ug/kg/min, iv infusion 0.2 μg/kg/min, 180 min, N = 6): 6.59 ng/mL
- level at 0 h ([3]; male, New Zealand White, plasma, iv, 0 ug/kg/min, 0 μg/kg/min (before infusion), 0 min, N = 6): 0.146 ng/mL
- level at -20 min ([3]; male, New Zealand White, plasma, iv, 0 ug/kg/min, 0 μg/kg/min (before infusion), −20 min, N = 6): 0.166 ng/mL
- Plasma steady state concentration ([3]; infusion rate 0.05 μg/kg/min): 1319 ± 615 pg/mL
- Plasma steady state concentration ([3]; infusion rate 0.1 μg/kg/min): 3434 ± 952 pg/mL
- Plasma steady state concentration ([3]; infusion rate 0.2 μg/kg/min): 7357 ± 1569 pg/mL
- level at 5 min ([4]; 5 min): 50.1 ng/mL
- level at 10 min ([4]; 10 min): 12 ng/mL
- level at […] ([4]; 15 min): 4.67 ng/mL
- level at 0.5 h ([4]; 30 min): 1.21 ng/mL
- level at 1 h ([4]; 60 min): 0.122 ng/mL
- level at […] ([4]; 90 min): 0.051 ng/mL
